This note sets out measurements from US11066399B2, “Ferroportin inhibitors” (Vifor (International) AG, priority 2015, dated 2021).

Marks after values point to notes of the source that are not given here.

Assay [1] concerns the target T1, ferroportin (Fpn) (Mus musculus, UniProt Q9JHI9).
T1 construct: host or cells: J774 mouse macrophage cell line, Fe(III)-NTA induced
T1 sequence (Q9JHI9 1-570): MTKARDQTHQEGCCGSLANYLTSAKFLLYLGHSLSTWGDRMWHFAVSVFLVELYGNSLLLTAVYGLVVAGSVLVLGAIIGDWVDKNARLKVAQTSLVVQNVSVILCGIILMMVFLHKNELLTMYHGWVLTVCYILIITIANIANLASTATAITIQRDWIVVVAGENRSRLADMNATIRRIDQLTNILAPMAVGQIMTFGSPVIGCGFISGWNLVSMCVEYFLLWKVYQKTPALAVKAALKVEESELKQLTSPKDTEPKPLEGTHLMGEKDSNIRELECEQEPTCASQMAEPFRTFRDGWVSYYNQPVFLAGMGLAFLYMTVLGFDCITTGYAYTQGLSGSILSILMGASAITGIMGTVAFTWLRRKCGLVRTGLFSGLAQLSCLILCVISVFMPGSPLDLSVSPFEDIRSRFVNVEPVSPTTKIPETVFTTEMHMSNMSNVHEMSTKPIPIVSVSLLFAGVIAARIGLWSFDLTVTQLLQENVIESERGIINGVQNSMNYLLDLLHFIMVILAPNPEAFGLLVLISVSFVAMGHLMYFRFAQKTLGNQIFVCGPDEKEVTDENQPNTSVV
The assay can be described thus: Hepcidin Internalization Assay (J774). The format is cell-based. The following applies: average (AVE) of multiple measurements; TMR-hepcidin 25 nM, J774 cells. The source says: This cellular assay allows quantification of the binding of hepcidin to ferroportin (Fpn) through microscopic detection of internalization of a fluorescently labeled hepcidin into J774 cells. […] Binding of hepcidin to Fpn triggers internalization and degradation of both hepcidin and Fpn. However, the TMR (6-carboxytetramethylrhodamine) fluorophore attached to hepcidin remains associated with the cell after degradation of the hepcidin peptide backbone. Therefore, microscopic detection of cell-associated TMR fluorescence is a measure of hepcidin binding to Fpn and internalization of hepcidin and Fpn. If TMR-hepcidin is prevented from binding to Fpn, cellular TMR fluorescence remains low (Dürrenberger et al, 2013). The effect of small molecular weight Fpn inhibitor compounds in this assay was evaluated in vitro as described below.
After overnight incubation, cells were washed 3 times with pre-warmed DMEM w/o phenol red, 30 μl/well of DMEM w/o phenol red was added after the final wash and 10 μl/well of dilution series of test compounds were added in triplicates. […] Cells were incubated in a total volume of 50 μl at 37° C. with 5% CO2 for 2 hours, then Hoechst 33342 dye was added to a final concentration of 0.5 μg/ml to stain nuclei and further incubated for 10 min. at 37° C. with 5% CO2. Cells were washed 3 times with PBS and fixed in 100 μl of 4% paraformaldehyde in PBS for 15 min. at room temperature. After removal of the paraformaldehyde solution, cells were washed 3 times with PBS leaving 100 μl per well and the plates were sealed with foil plate seal. TMR (530-550 nm excitation/575-625 nm emission/400 ms exposure time) and Hoechst 33342 (360-370 nm excitation/420-460 nm emission/10 ms exposure time) fluorescence images were acquired using a ScanR plate imager (Olympus) with a 20× high NA objective. Four pictures were acquired per well and fluorescence channel covering ca. 1500 cells per well. The acquired image data was analysed with the ScanR image analysis software. Image analysis included detection of nuclei (Hoechst 33342 fluorescence), identification of cell-associated regions, application of a virtual channel and thresholding for rolling-ball-type background reduction, followed by application of the Sum(Mean) algorithm to measure the TMR fluorescence associated with cells as a quantitative measure for internalized TMR-hepcidin. IC50 values were calculated with the Sum(Mean) raw data using “log(inhibitor) vs. response” curve fitting of Prism 5 software (GraphPad Software Inc., version 5.02).

The test system of assay [2] is b2m−/− mice. Kind of assay: Correction of hyperferremia in beta2-microglobulin deficient mice. Type of assay: in vivo, mouse. As to conditions: for effect on elevated serum iron: b2m−/− mice, 50 mg/kg p.o. for 3 h. The procedure: Female and male homozygous b2m−/− mice were supplied from Jackson Laboratories (B6.129P2-B2mtm1Unc/J, Stock Number: 002087) at age of 6 to 7 weeks and fed standard diet (Harlan Provimi Kliba 3436) ad libitum. Age and gender matched WT C57BL/6 mice are supplied by Charles River. To study the acute effects of ferroportin (Fpn) inhibitors in iron overload b2m−/− mice were treated with compounds or the corresponding amount of vehicle at a volume of 10 ml/kg body weight. Fpn inhibitor compounds were formulated in 0.5% methylcellulose/water or 20% cremophor EL/water and dosed p.o. in mice at 50 mg/kg body weight. WT controls received only vehicle. Three hours later, mice were pre-terminally anesthetized in isoflurane chambers and blood was collected by retro-orbital bleeding. Mice were sacrificed by cervical dislocation and spleens, livers and duodena were harvested and used for biomarker analysis. All experiments have been performed in compliance with license approved by the responsible veterinarian authorities. Serum was isolated by centrifugation of blood into gel-containing microtainers (BD Biosciences) and serum iron was determined by the MULTIGENT Iron assay (Abbott Diagnostics, Cat. 6K95). Four to nine mice per group were used and one-way ANOVA with Bonferroni's multiple comparison test was applied to analyze the statistical differences between the experimental groups.
Blood was collected 1 (#) or 3 (##) hours after oral administration of the indicated doses of Fpn inhibitors to beta2-microglobulin deficient mice and serum iron concentrations were measured. Relative reduction (%) of serum iron levels are shown, which were calculated by subtracting the average of serum iron values of animals dosed with the Fpn inhibitor from that of vehicle-treated animals. The difference in average serum iron values between vehicle and compound treated groups was then divided by the average of serum iron of the vehicle control group and listed as percentage.

The test system of assay [3] is Hbb th3/+ mice. Kind of assay: Improvement of anemia, ineffective erythropoiesis and iron overload in a mouse model of β-thalassemia intermedia. The format is in vivo. The following applies: % change to vehicle; for Decrease in serum iron: dosed for 3 h. The procedure:
The efficacy of Fpn inhibitors was investigated using a mouse model of transfusion-independent β-thalassemia. Mice with heterozygous deletion of β1 and β2 globin genes (called Hbb th3/+ mice) develop transfusion-independent anemia, ineffective erythropoiesis, splenomegaly and secondary iron overload in spleen, liver and kidneys. […] Hbb th3/+ mice were dosed twice daily with either compound at 20 or 60 mg/kg or with methylcellulose (10 ml/kg, Sigma, Cat. 274429) as a vehicle. Between both doses mice had access to drinking water supplemented with 1 mM ^58Fe(II)-sulfate (Vifor Pharma, Batch No. ROR 3096) and 10 mM ascorbic acid (Sigma, Cat. 795437) for 6 h. […] Water without ^58Fe(II)-Sulfate and ascorbic acid was provided during the remaining 18 h. Dosing of Fpn inhibitors or vehicle followed by exposure to iron-containing water was repeated for 20 to 46 days in individual experiments.
Additional hematologic parameters were measured in terminal blood using automated blood cell analyzer.
The inefficient erythropoiesis of Hbb th3/+ mice causes excessive proliferation of erythroid precursors in spleen, leading to splenomegaly.
Erythroferrone is produced by erythrocyte precursors proliferating massively in spleens of Hbb th3/+ mice as a consequence of extramedullar erythropoiesis.
Increased iron demand due to inefficient erythropoiesis and chronically low hepcidin levels in patients with thalassemia causes organ iron loading and associated morbidities, such as hepatocellular carcinoma and heart failure (Rivella S. Haematologica, 2015). Hbb th3/+ mice absorb excessive amounts of iron as a consequence of inadequately low hepcidin levels relative to the high iron content in liver, spleen and kidney and increased ferroportin expression in duodenum (Gardenghi S., Blood, 2007).
Additionally, reactive oxygen species (ROS) were detected in bone marrow cells using a fluorescent indicator, CM-H2DCFDA (Thermo Fisher Scientific, Cat. C6827).
Table 10. Efficacy of Ferroportin inhibitors in a mouse model of thalassemia intermedia (Hbb th3/+ mice). […] Data are expressed as difference to the vehicle control group for hemoglobin and as % change to the vehicle control group for all other parameter shown

[4] abbreviates: 20 mg/kg twice daily for 20-46 days.
[5] abbreviates: 60 mg/kg twice daily for 20-46 days.
Where [6] appears, read: male b2m−/− mice, Dose 60 mg/kg oral, blood collected 3 (##) hours after dosing.

Take `O=C(NCc1ncccc1F)c1cnc(C2CN(CCc3nc4cc(F)ccc4[nH]3)C2)o1` [Example 5]: in assay [1], the midpoint of inhibition, the IC50, lay at 63 nM.
For the compound `O=C(NCc1ncccc1F)c1coc(CCNCCc2nc3ccccc3[nH]2)n1` [Example 127], the “Serum Iron Reduction (%)” value in assay [2] (female b2m−/− mice, Dose 20 mg/kg oral, sampling time not marked) is 47*** %. Also, in assay [2] (female b2m−/− mice, Dose 60 mg/kg oral, sampling time not marked), the “Serum Iron Reduction (%)” value is listed as 74*** %. Moreover, the “Serum Iron Reduction (%)” value in assay [2] (male b2m−/− mice, Dose 60 mg/kg oral, sampling time not marked) is 83** %. Moreover, in assay [3] (setting [4]), the “Decrease in 58Fe spleen iron content” value is 43%, the “Decrease in RDW” value is listed as 19%, the “Decrease in serum erythropoietin” value amounted to 32% and the Increase in hematocrit is 3%. Further, the “Prevention of liver 58Fe loading” value in assay [3] (setting [4]) is recorded as 39%. Besides, the “Decrease in serum iron” value in assay [3] (20 mg/kg) is on record as 68%. Moreover, in assay [3] (setting [5]), the “Decrease in 58Fe spleen iron content” value came to 68%, the “Decrease in RDW” value was found to be 25%, the “Decrease in serum erythropoietin” value is 33% and the Increase in hematocrit came out at 20%. Further, the “Prevention of liver 58Fe loading” value in assay [3] (setting [5]) is recorded as 59%. Also, the “Decrease in serum iron” value in assay [3] (60 mg/kg) was 81%.
As to `O=C(NCc1ncccc1F)c1csc(CCN2CCn3c(nc4ccccc43)C2)n1` [Example 276], the IC50 in assay [1] came to 27200 nM.
Turning to `O=C(NCc1ncccc1F)c1cnc(CCNCc2nc3ccccc3[nH]2)o1` [Example 4], the IC50 in assay [1] worked out at 155 nM.
Still for that read-out and setting: as for `O=C(NCc1ncccc1F)c1cnc(CCNCCc2nc3ccccc3[nH]2)s1` [Example 8], the figure is 240 nM.
Same read-out and setting: then `Cc1nc(CCNCCc2nc3ccccc3[nH]2)sc1C(=O)NCc1ncccc1F` [Example 7], with 400 nM.
On to `O=C(NCc1ncccc1F)c1coc(C2CN(CCc3nc4ccccc4[nH]3)C2)n1` [Example 208], for which the “Serum Iron Reduction (%)” value in assay [2] (female b2m−/− mice, Dose 20 mg/kg oral, blood collected 3 (##) hours after dosing) is 9%; in assay [2] (male b2m−/− mice, Dose 20 mg/kg oral, blood collected 3 (##) hours after dosing) it was 44%; in assay [2] (setting [6]), 67** %.
`O=C(NCc1ncccc1F)c1csc(CCNCCc2nc3ccccc3[nH]2)n1` [Example 94]: the “Serum Iron Reduction (%)” value in assay [2] (female b2m−/− mice, Dose 60 mg/kg oral, blood collected 3 (##) hours after dosing) worked out at 47%; in assay [2] (setting [6]), 67%.
Take `O=C(NCc1ccccn1)c1noc(CCNCCc2nc3ccccc3[nH]2)n1` [Example 278]: the IC50 in assay [1] came to 476 nM.
`O=C(NCc1ncccc1F)c1csc(CCNCCc2nc3ccccc3[nH]2)n1` [Example Compound No. 94, 2-(2-{[2-(1H-1,3-benzodiazol-2-yl)ethyl]amino}ethyl)-N-[(3-fluoropyridin-2-yl)methyl]-1,3-thiazole-4-carboxamide]: the “effect on elevated serum iron” value in assay [2] is on record as “corrected the elevated serum iron to the levels observed in WT controls”.
Regarding `O=C(NCc1ncccc1F)c1noc(CCNCCc2nc3ccccc3[nH]2)n1` [Example 279], the IC50 in assay [1] stood at 2010 nM.
As for `O=C(NCc1ncccc1F)c1csc(CCNCc2nc3ccccc3[nH]2)n1` [Example Compound No. 40, 2-{2-[(1H-1,3-benzodiazol-2-ylmethyl)amino]ethyl}-N-[(3-fluoropyridin-2-yl)methyl]-1,3-thiazole-4-carboxamide], the “effect on elevated serum iron” value in assay [2] is on record as “corrected the elevated serum iron to the levels observed in WT controls”.
`O=C(NCc1ncccc1F)c1cnc(C2CN(Cc3nc4ccccc4[nH]3)C2)o1` [Example 280]: the IC50 in assay [1] amounted to 50000 nM.
Same read-out and setting: then `O=C(NCc1ncccc1F)c1csc(CCN2Cc3nc4ccccc4n3CC2=O)n1` [Example 275], with 26000 nM; and `O=C(NCc1ncccc1F)c1cnc(C2CN(CCc3nc4c(F)cccc4[nH]3)C2)o1` [Example 3], with 170 nM.

The term IC50 denotes the point on the concentration scale where inhibition reaches its midpoint. A high value points to weaker potency in that assay.
